According to patent US20230293614A1, “COMPOSITIONS AND METHODS OF TREATING UPS-ASSOCIATED DISEASES” (Board of Supervisors of Louisiana State University and …, priority 2020, published 2023):

Assays:
[1] = MTT cellular viability assay, MM.1S; assay type: cell-based; conditions: human, MM.1S cells, read-out: percentage of viable cells
Experimental: (§1) The effect of PMI-5011 and bioactive compounds on the viability of cells was tested using a standard colorimetric MTT assay. The MTT Cell Proliferation Assay Kit was purchased from VWR, Radnor, Pa. MM.1S and OPM2 cells were treated with 10 μg/mL of PMI-5011 and 1, 10, and 30 μg/mL of DMC-1, DMC-2, KOE and davidigenin and plated at a density of 10^6 cells/mL in a 96-well plate with each well containing 250 μL of the sample. The plated cells were then incubated at 37° C. for 16 h. 10 μg/mL for PMI-5011 and a 16-h treatment period was used in this study based on previous findings by Yu et al.^24 Parallel plates were prepared for positive and negative solvent vehicle control with the same volume of DMSO and ethanol as for the treated cells. On the day of the experiment, the 96-well plates were centrifuged at 1000×g at 4° C. for 5 min in a microplate compatible centrifuge. The media was discarded and 50 μL of serum-free media and 50 μL of the MTT reagent were added into each well. For a background control, 50 μL of the MTT reagent was added into a well containing media only (no cells). The plate was incubated at 37° C. for 3 h in the dark. After incubation, 150 μL of the MTT solvent was added into each well. The plate was wrapped in a foil and placed on an orbital shaker for 15 min. Finally, the absorbance was measured at λex=544 nm and λem=590 nm using a Wallac 1420 VICTOR2 multilabel HTS counter fluorometry (Perkin Elmer (Waltham, Mass.). The percentage viable cells was obtained by Eq. 1.
(§2) % Viable Cells=S-N/C-N×100 (Eq. 1)
(§3) Where, S denotes raw absorbance values from samples, N denotes average absorbance value of the background control and C denotes the highest average absorbance value of positive vehicle control. The obtained percentage cytotoxicity values were then statistically analyzed for their significance. Each data point represents triplicate data points from duplicate experiments. The effect of PMI-5011 and the selected bioactive compounds on C2C12 cell viability has previously been reported.^24

[2] = tested on: deubiquitinating enzymes (DUBs); experiment: DUB activity (Z-LRGG-AMC cleavage) in lysates of treated OPM2 cells; assay type: cell-based; conditions: for Vmax / effect on DUB activity vs DMSO control / Km / n (Hill coefficient): 16 h; for effect of increasing concentration on DUB activity (normalized Vmax): 1, 10, 30 μg/mL, regression fit
Experimental: (§4) OPM2 cells were maintained in RPMI 1640 media supplemented with 12% FBS, 21.8 mM glucose, 8.6 mM HEPES (pH 7.4) and 1.0 mM sodium pyruvate. MM.1S cell line were maintained in RPMI 1640 media supplemented with 10% FBS. The cells were all cultured in T175 flasks (VWR, Radnor, Pa.). All media components were from Corning, Atlanta, Ga. unless otherwise noted. To test the effect of the ethanolic extract and bioactive compounds on DUB activity, cells were exposed to a 16-h pretreatment with 10 μg/mL of PMI-5011 and 1, 10, 30 μg/mL concentrations of DMC-1, DMC-2, KOE, and davidigenin before lysing the cells for experimentation. All compounds were reconstituted in DMSO to obtain stock concentrations, which was further diluted in culture media to obtain the desired experimental concentrations. For vehicle control, a subpopulation of cells was treated with pure DMSO diluted in a similar manner for the same duration. Upon treatment, cell lysates (both OPM2 and MM.1S) were generated by harvesting 1×10^6 cells/mL, followed by washing 2× and pelleting in phosphate buffered saline (PBS; 137 mM NaCl, 10 mM Na2HPO4, […], and 1.75 mM KH2PO4 at pH 7.4). The cell pellet was re-suspended in an approximately equivalent volume of M-PER to the volume of the cell pellet (1000-2000 μL) then vortexed for 10 min at room temperature. Following this, the mixture was centrifuged at 14,000×g for 15 min at 4° C. and the supernatant transferred to a centrifuge tube and stored on ice until use. Total protein concentration was determined using a NanoDrop 2000c (Thermo Scientific, Madison, Wis.).
(§5) The commercial DUB reporter, Z-LRGG-AMC (substrate) (SEQ ID NO: 1) was reconstituted in DMSO to obtain a final stock concentration of 1.44 mM. This stock reporter was diluted as needed in assay buffer (50 mM HEPES, pH 7.4, 150 mM NaCl, 2 mM DTT, and 0.02% Tween-20) supplemented with 4 mg/mL cell lysates (source of DUBs) to reach the desired reporter concentration with a final volume of 100 μL in a 96-well plate. OPM2 and MM.1S cell lysates from different treatments (10 μg/mL of PMI-5011; 1, 10, and 30 μg/mL of DMC-1, DMC-2, KOE, davidigenin and control vehicle DMSO) and C2C12 cell lysates were used to interrogate the effect of the ethanolic extract and selected bioactive compounds on DUB activity. Reporter only and lysates only (noise/background) samples were included in the 96-well plate to confirm that the rates observed were due to DUB-mediated hydrolysis initiated by the cell lysates. The 96-well plate was maintained at a temperature of 30° C. in the dark for the duration of the experiment. The fluorescence signals emitted as a result of DUB-mediated cleavage of AMC (λex=355 nm and λem=460 nm) were quantified using a Wallac 1420 VICTOR2 multilabel HTS counter fluorometry (Perkin Elmer (Waltham, Mass.). Readings were collected every 30 min for 6 h. The normalized signals were obtained by comparing the treatment with noise and background fluorescence values which were then statistically analyzed for their significance. Each data point represents triplicate data points from duplicate experiments. A calibration curve was generated for known concentrations of AMC to correlate the fluorescence signal (AU) to concentration (μM). The approximate concentration of free fluorophore was used to calculate reaction rates (μM/min) for each substrate concentration using linear regression analysis.
(§6) All data visualization, interpretation and curve-fittings were performed using Origin Pro (OriginLab, Northampton, MA) while statistical analyses of experimental data were carried out using SAS 9.4 (SAS Solutions). The analyses of enzyme-substrate reactions in all cell lysates started with scatter plotting the fluorometry signals (p,M) measured for each substrate concentration against time (min). Fluorescence signals measured for each substrate concentration remained stable during the first 30 min, indicating there was a 30-minute lag period before reaction initiation. […]

[3] = MTT cellular viability assay, OPM2; assay type: cell-based; conditions: human, OPM2 cells, read-out: percentage of viable cells
Experimental: as §1, §2, §3

[4] = tested on: deubiquitinating enzymes (DUBs); experiment: DUB activity (Z-LRGG-AMC cleavage) in lysates of treated MM.1S cells; assay type: cell-based; conditions: for Vmax / effect on DUB activity vs DMSO control / Km / n (Hill coefficient): 16 h; for effect of increasing concentration on DUB activity (normalized Vmax): 1, 10, 30 μg/mL, regression fit
Experimental: as §4, §5, §6

[5] = tested on: DUB; experiment: Experiment 2: DUB reporter Z-LRGG-AMC with control, 5011, IU1 and KOE lysates; assay type: biochemical; conditions: lysate 4 mg/mL
Experimental: Peptide used was the commercial DUB reporter [Z-LRGG-AMC (SEQ ID NO: 1)] at multiple concentration [50-150 um]. 640 μL protein at 10 mg/mL for each set was given. Final protein concentration in micro-wells was 4 mg/mL. Peptide was incubated with control, 5011 treated, 25 uM IU1, 50 uM IU1 and KOE in DUB assay buffer. Fluorometric readings were taken at different time points in plate reader. Measured at [Em 460/Ex 355]. Fluorescent signals were converted to μM/min using a calibration curve for the AMC fluorophore. Rates were plotted vs. substrate concentration (Z-LRGG-AMC peptide (SEQ ID NO: 1)) (FIG. 7).

[6] = Table 2, OPM-2, 1 μg/mL, in µM/min
[7] = Table 2, OPM-2, 10 μg/mL, in µM/min
[8] = Table 2, OPM-2, 30 μg/mL, in µM/min

| SMILES | viability at 16 h, 1 μg/mL [1] | viability at 16 h, 30 μg/mL [1] | Vmax ([2]; OPM2, 1 μg/mL) | effect on DUB activity vs DMSO control ([2]; OPM2, 1 μg/mL) | Vmax ([2]; OPM2, 10 μg/mL) | effect on DUB activity vs DMSO control ([2]; OPM2, 10 μg/mL) | Vmax ([2]; OPM2, 30 μg/mL) | effect on DUB activity vs DMSO control ([2]; OPM2, 30 μg/mL) | effect of increasing concentration on DUB activity (normalized Vmax) ([2]; OPM2) | Km ([2]; Table 2, OPM-2, 1 μg/mL) | n (Hill coefficient) ([2]; Table 2, OPM-2, 1 μg/mL) | Vmax [2, 6] | Km ([2]; Table 2, OPM-2, 10 μg/mL) | n (Hill coefficient) ([2]; Table 2, OPM-2, 10 μg/mL) | Vmax [2, 7] | Km ([2]; Table 2, OPM-2, 30 μg/mL) | n (Hill coefficient) ([2]; Table 2, OPM-2, 30 μg/mL) | Vmax [2, 8] | viability at 16 h, 1 μg/mL [3] | viability at 16 h, 30 μg/mL [3] | further results |
| --- | --- | --- | --- | --- | --- | --- | --- | --- | --- | --- | --- | --- | --- | --- | --- | --- | --- | --- | --- | --- | --- |
| COc1ccc(C(=O)CCc2ccc(O)cc2)c(O)c1 [DMC-1, 1-(2-hydroxy-4-methoxyphenyl)-3-(4-hydroxyphenyl)propan-1-one] | ~95% | ~55% | 33.06 ± 5.08 µM/min | significantly inhibiting | 27.93 ± 4.80 µM/min | significantly inhibiting | 233.44 ± 27.31 µM/min | significantly enhanced | exponential increase | 61.4 µM | 1.29 | 33.06± | 46.3 µM | 1.40 | 27.93 | 140 µM | 0.93 | 233.44 | ~100% | ~60% | Vmax ([4]; 1 μg/mL): 7.03 ± 1.10 µM/min; effect on DUB activity vs DMSO control ([4]; 1 μg/mL): significantly inhibiting; Vmax ([4]; 10 μg/mL): 9.19 ± 0.78 µM/min; effect on DUB activity vs DMSO control ([4]; 10 μg/mL): significantly inhibiting; Vmax ([4]; 30 μg/mL): 12.91 ± 1.45 µM/min; effect on DUB activity vs DMSO control ([4]; 30 μg/mL): significantly enhanced; effect of increasing concentration on DUB activity (normalized Vmax) [4]: positive linear effect; Km ([4]; Table 2, 1 μg/mL): 21 µM; Vmax ([4]; Table 2, 1 μg/mL): 0.00703 µM/min; n (Hill coefficient) ([4]; Table 2, 1 μg/mL): 1.33; Km ([4]; Table 2, 10 μg/mL): 26 µM; Vmax ([4]; Table 2, 10 μg/mL): 0.00919 µM/min; n (Hill coefficient) ([4]; Table 2, 10 μg/mL): 1.64; Km ([4]; Table 2, 30 μg/mL): 29.3 µM; Vmax ([4]; Table 2, 30 μg/mL): 0.0129 µM/min; n (Hill coefficient) ([4]; Table 2, 30 μg/mL): 1.07 |
| O=C(CCc1ccc(O)cc1)c1ccc(O)cc1O [DVG, 1-(2,4-dihydroxyphenyl)-3-(4-hydroxyphenyl)propan-1-one] | ~105% | ~80% | 23.32 ± 1.58 µM/min | significantly enhanced | 24.76 ± 1.84 µM/min | significantly enhanced | 315.24 ± 41.65 µM/min | significantly enhanced | exponential increase | 56.4 µM | 0.82 | 23.32 | 45.5 µM | 1.78 | 24.76 | 89.4 µM | 1.34 | 315.24 | ~90% | ~60% | effect on DUB activity (summary) ([2]; OPM2): enhance; effect on DUB activity (summary) [4]: inhibit; Vmax ([4]; 1 μg/mL): 12.72 ± 0.78 µM/min; effect on DUB activity vs DMSO control ([4]; 1 μg/mL): significantly enhanced; Vmax ([4]; 10 μg/mL): 12.23 ± 1.30 µM/min; effect on DUB activity vs DMSO control ([4]; 10 μg/mL): significantly enhanced; Vmax ([4]; 30 μg/mL): 6.48 ± 0.54 µM/min; effect on DUB activity vs DMSO control ([4]; 30 μg/mL): significantly inhibited; effect of increasing concentration on DUB activity (normalized Vmax) [4]: negative linear effect; Km ([4]; Table 2, 1 μg/mL): 30.2 µM; Vmax ([4]; Table 2, 1 μg/mL): 0.0127 µM/min; n (Hill coefficient) ([4]; Table 2, 1 μg/mL): 2.01; Km ([4]; Table 2, 10 μg/mL): 39.2 µM; Vmax ([4]; Table 2, 10 μg/mL): 0.0122 µM/min; n (Hill coefficient) ([4]; Table 2, 10 μg/mL): 1.92; Km ([4]; Table 2, 30 μg/mL): 38.4 µM; Vmax ([4]; Table 2, 30 μg/mL): 0.00648 µM/min; n (Hill coefficient) ([4]; Table 2, 30 μg/mL): 1.51 |
| Cc1cc(C(=O)CN2CCCC2)c(C)n1-c1ccc(F)cc1 [IU1] | – | – | – | – | – | – | – | – | – | – | – | – | – | – | – | – | – | – | – | – | effect on DUB activity vs control ([5]; 25 μM): inhibit; effect on DUB activity vs control ([5]; 50 μM): inhibit |
